The results in this text go back to BindingDB's records for doi:10.1111/cbdd.12675 (Quaid-I-Azam University, 2016).

In the assay the target is Urease (Canavalia ensiformis, UniProt P07374). Briefly: Urease Inhibition Assay. The settings on record: pH 8.2. On the procedure: The urease inhibitory activity of synthesized sulfonamides (3a-j) was determined by measuring the amount of ammonia produced by the indophenols method described byWeatherburn (27,28). The reaction mixtures, comprising 20 µL of enzyme (Jack bean urease, 5 U/mL) and 20 µL of test compounds in 50 µL buffer (100 mM urea, 0.01 MK2HPO4, 1 mM EDTA and 0.01 M […], pH 8.2), were incubated for 10 min at 37 °C in 96-well plate. Briefly, 40 µL each of phenol reagents (1%, w/v phenol and0.005%, w/v sodium nitroprusside) and 70 µL of alkali reagent (0.5%, w/v NaOH and 0.1% active chloride NaOCl) were added to each well. […] All reactions were performed in triplicate.
Sequence of Urease (P07374 whole entry): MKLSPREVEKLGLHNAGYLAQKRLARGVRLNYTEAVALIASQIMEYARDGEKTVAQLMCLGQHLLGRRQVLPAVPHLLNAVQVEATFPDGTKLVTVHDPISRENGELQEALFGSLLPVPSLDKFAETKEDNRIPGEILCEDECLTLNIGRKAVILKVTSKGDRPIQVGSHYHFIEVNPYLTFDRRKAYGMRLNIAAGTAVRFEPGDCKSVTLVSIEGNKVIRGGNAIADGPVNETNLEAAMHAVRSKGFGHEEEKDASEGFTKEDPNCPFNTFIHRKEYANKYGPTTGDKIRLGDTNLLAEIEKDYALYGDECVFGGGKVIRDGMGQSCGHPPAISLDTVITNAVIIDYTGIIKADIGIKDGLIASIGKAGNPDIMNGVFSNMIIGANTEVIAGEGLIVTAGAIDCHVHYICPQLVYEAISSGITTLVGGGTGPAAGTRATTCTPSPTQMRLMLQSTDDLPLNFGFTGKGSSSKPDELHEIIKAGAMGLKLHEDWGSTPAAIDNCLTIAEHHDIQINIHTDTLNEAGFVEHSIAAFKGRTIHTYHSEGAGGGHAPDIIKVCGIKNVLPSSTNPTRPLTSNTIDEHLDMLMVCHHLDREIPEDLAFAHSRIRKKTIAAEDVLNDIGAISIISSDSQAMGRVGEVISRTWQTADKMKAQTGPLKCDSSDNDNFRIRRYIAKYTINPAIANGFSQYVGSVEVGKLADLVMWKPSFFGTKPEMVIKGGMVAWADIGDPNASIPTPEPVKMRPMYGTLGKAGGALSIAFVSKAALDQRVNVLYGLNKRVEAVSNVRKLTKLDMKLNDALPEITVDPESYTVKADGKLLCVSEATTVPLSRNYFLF
`Cc1cs/c(=N\C(=O)c2ccccc2)n1-c1ccc(S(N)(=O)=O)cc1` [(Z)-N-(3-(4-aminosulfonylphenyl)-4-methylthiazol-2(3H)-ylidene) benzamide (3a)] showed an IC50 of 0.096 µM. This counts as double-digit nanomolar.
Consider `Cc1cs/c(=N\C(=O)c2ccco2)n1-c1ccc(S(N)(=O)=O)cc1` [(Z)-N-(3-(4-aminosulfonylphenyl)-4-methylthiazol-2(3H)-ylidene) furan-2-carboxamide (3j)], for which inhibition was half-maximal at 0.083 µM (IC50).
In the case of `Cc1cs/c(=N\C(=O)c2ccc([N+](=O)[O-])cc2Cl)n1-c1ccc(S(N)(=O)=O)cc1` [(Z)-N-(3-(4-aminosulfonylphenyl)-4-methylthiazol-2(3H)-ylidene)-2-chloro-4-nitrobenzamide (3i)] it was 0.058 µM; in that of `Cc1ccccc1C(=O)/N=c1\scc(C)n1-c1ccc(S(N)(=O)=O)cc1` [(Z)-N-(3-(4-aminosulfonylphenyl)-4-methylthiazol-2(3H)-ylidene)-2-methylbenzamide (3b)], 0.087 µM; in that of `Cc1cs/c(=N\C(=O)c2ccccc2[N+](=O)[O-])n1-c1ccc(S(N)(=O)=O)cc1` [(Z)-N-(3-(4-aminosulfonylphenyl)-4-methylthiazol-2(3H)-ylidene)-2-nitrobenzamide (3f)], 0.35 µM.
Consider `Cc1cs/c(=N\C(=O)c2cccc(F)c2)n1-c1ccc(S(N)(=O)=O)cc1` [(Z)-N-(3-(4-aminosulfonylphenyl)-4-methylthiazol-2(3H)-ylidene)-3-fluorobenzamide (3h)], for which the IC50 was found to be 0.064 µM.
In the case of `COc1cccc(C(=O)/N=c2\scc(C)n2-c2ccc(S(N)(=O)=O)cc2)c1` [(Z)-N-(3-(4-aminosulfonylphenyl)-4-methylthiazol-2(3H)-ylidene)-3-methoxybenzamide (3g)] it was 0.081 µM; in that of `Cc1cccc(C(=O)/N=c2\scc(C)n2-c2ccc(S(N)(=O)=O)cc2)c1` [(Z)-N-(3-(4-aminosulfonylphenyl)-4-methylthiazol-2(3H)-ylidene)-3-methylbenzamide (3c)], 0.087 µM.
As for `Cc1ccc(C(=O)/N=c2\scc(C)n2-c2ccc(S(N)(=O)=O)cc2)cc1` [(Z)-N-(3-(4-aminosulfonylphenyl)-4-methylthiazol-2(3H)-ylidene)-4-methylbenzamide (3d)], inhibition was half-maximal at 0.072 µM (IC50).
In the case of `Cc1cs/c(=N\C(=O)c2ccc([N+](=O)[O-])cc2)n1-c1ccc(S(N)(=O)=O)cc1` [(Z)-N-(3-(4-aminosulfonylphenyl)-4-methylthiazol-2(3H)-ylidene)-4-nitrobenzamide (3e)] it was 0.083 µM.

For orientation: IC50 means the concentration that gives 50% inhibition.
